# Key:
# Type in all cases: in vivo
# [1] = test system: Puccinia recondita f. sp. tritici; test: Test I: wheat leaf rust on wheat seedlings, sprayed the day before inoculation, visual disease rating; details: 100 = 100% disease control; for pest or weed control at 200 ppm: 0 = no control relative to controls; for pest or weed control at 200 ppm / Test I disease control rating: 200 ppm; for Test I disease control rating: 0 = no control
# Procedure, shortened: (§1)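 Acetone solution (3% of final volume) of each compound is suspended in 50/50 acetone/water with 250 ppm Trem® 014. Plants are sprayed to run-off at 200 ppm, equivalent to 500 g/ha, or at 40 ppm for starred values.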
# [2] = test system: Septoria nodorum; test: Test F: wheat glume blotch on wheat seedlings, sprayed the day before inoculation, visual disease rating; details: 100 = 100% disease control; for pest or weed control at 200 ppm: 0 = no control relative to controls; for pest or weed control at 200 ppm / Test F disease control rating: 200 ppm; for Test F disease control rating: 0 = no control
# Procedure, shortened: as §1
# [3] = test system: Botrytis cinerea; test: Test C: tomato Botrytis on tomato seedlings, sprayed the day before inoculation, visual disease rating; details: 100 = 100% disease control; for pest or weed control at 200 ppm: 0 = no control relative to controls; for pest or weed control at 200 ppm / Test C disease control rating: 200 ppm; for Test C disease control rating: 0 = no control
# Procedure, shortened: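 Disease ratings refer to tomato seedlings treated by run-off spraying with compound suspensions, mostly 200 ppm (500 g/ha equivalent) and in marked cases 40 ppm. Carrier: acetone/purified water 50/50 with 250 ppm polyhydric alcohol ester surfactant, after predissolving in acetone.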
# [4] = test system: Puccinia recondita f. sp. tritici; test: Test H: wheat leaf rust, test suspension sprayed after inoculation of wheat seedlings, visual disease rating; details: 100 = 100% disease control; for pest or weed control at 200 ppm: 0 = no control relative to controls; for pest or weed control at 200 ppm / Test H disease control rating: 200 ppm; for Test H disease control rating: 0 = no control
# Source text: General protocol for preparing test suspensions for Tests A-J: The test compounds were first dissolved in acetone in an amount equal to 3% of the final volume and then suspended at the desired concentration (in ppm) in acetone and purified water (50/50 mix) containing 250 ppm of the surfactant Trem® 014 (polyhydric alcohol esters). The resulting test suspensions were then used in tests A-J. Spraying a 200 ppm test suspension to the point of run-off on the test plants was the equivalent of a rate of 500 g/ha. […] Wheat seedlings were inoculated with a spore suspension of Puccinia recondita f. sp. tritici (the causal agent of wheat leaf rust) and incubated in a saturated atmosphere at 20° C. for 24 h, and then moved to a growth chamber at 20° C. for 2 days. […] A dash (-) indicates no test results. All results are for 200 ppm except where followed by “*”, which indicates 40 ppm.
# [5] = test system: Erysiphe graminis f. sp. tritici; test: Test J: wheat powdery mildew on wheat seedlings, sprayed the day before inoculation, visual disease rating; details: 100 = 100% disease control; for pest or weed control at 200 ppm: 0 = no control relative to controls; for pest or weed control at 200 ppm / Test J disease control rating: 200 ppm; for Test J disease control rating: 0 = no control
# Procedure, shortened: as §1
# [6] = test system: Septoria tritici; test: Test G: wheat leaf blotch on wheat seedlings, sprayed the day before inoculation, visual disease rating; details: 100 = 100% disease control; for pest or weed control at 200 ppm: 0 = no control relative to controls; for pest or weed control at 200 ppm / Test G disease control rating: 200 ppm; for Test G disease control rating: 0 = no control
# Procedure, shortened: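 Compounds dissolved in acetone (3% of final volume), then suspended in 50/50 acetone/water with 250 ppm Trem® 014 and sprayed to run-off on seedlings at 200 ppm (≈500 g/ha) or 40 ppm where marked. Inoculation with spores followed next day; visual rating after 48 h saturated at 24° C plus 19 days at 20° C.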
# [7] = test system: Alternaria solani; test: Test D: tomato early blight, sprayed the day before inoculation, visual disease rating; details: 100 = 100% disease control; for pest or weed control at 200 ppm: 0 = no control relative to controls; for pest or weed control at 200 ppm / Test D disease control rating: 200 ppm; for Test D disease control rating: 0 = no control
# Procedure, shortened: as §1
# [8] = Parastagonospora nodorum, 264 h
Compound,Test I disease control rating [1],Test F disease control rating [2],Test C disease control rating [3],Test H disease control rating [4],Test J disease control rating [5],Test G disease control rating [6],Test D disease control rating [7],other results
"COc1cc(F)c(-n2c(Cl)nc(C)c2-c2ccc(Cl)nc2)c(F)c1 [Compound 696, 2-chloro-5-[2-chloro-1-(2,6-difluoro-4-methoxyphenyl)-4-methyl-1H-imidazol-5-yl]pyridine]",–,–,–,–,–,–,–,"pest or weed control at 40 ppm ([1]; Puccinia recondita, 168 h, 40 ppm (marked *)): 99%; pest or weed control at 40 ppm ([2]; Parastagonospora nodorum, 264 h, 40 ppm (marked *)): 100%; pest or weed control at 40 ppm ([3]; Botrytis cinerea, 120 h, 40 ppm (marked *)): 100%; pest or weed control at 40 ppm ([4]; Puccinia recondita, 96 h, 40 ppm (marked *)): 99%; pest or weed control at 40 ppm ([5]; Blumeria graminis, 168 h, 40 ppm (marked *)): 100%; pest or weed control at 40 ppm ([6]; Zymoseptoria tritici, 504 h, 40 ppm (marked *)): 99%; pest or weed control at 40 ppm ([7]; Alternaria solani, 168 h, 40 ppm (marked *)): 100%"
"COc1cc(F)c(-c2c(Cl)nc(Br)n2-c2ccc(C(F)(F)F)nc2)c(F)c1 [Compound 707, 5-[2-bromo-4-chloro-5-(2,6-difluoro-4-methoxyphenyl)-1H-imidazol-1-yl]-2-(trifluoromethyl)pyridine]",–,–,–,–,–,–,–,"pest or weed control at 200 ppm ([1]; Puccinia recondita, 168 h): 100%; pest or weed control at 200 ppm [2, 8]: 100%; pest or weed control at 200 ppm ([3]; Botrytis cinerea, 120 h): 100%; pest or weed control at 200 ppm ([4]; Puccinia recondita, 96 h): 67%; pest or weed control at 200 ppm ([5]; Blumeria graminis, 168 h): 100%; pest or weed control at 200 ppm ([6]; Zymoseptoria tritici, 504 h): 99%; pest or weed control at 200 ppm ([7]; Alternaria solani, 168 h): 100%"
"COc1cc(F)c(-c2c(Cl)nc(C)n2-c2ccc(C(F)(F)F)nc2)c(F)c1 [Compound 713, 5-[4-chloro-5-(2,6-difluoro-4-methoxyphenyl)-2-methyl-1H-imidazol-1-yl]-2-(trifluoromethyl)pyridine]",–,–,–,–,–,–,–,"pest or weed control at 200 ppm ([1]; Puccinia recondita, 168 h): 100%; pest or weed control at 200 ppm [2, 8]: 100%; pest or weed control at 200 ppm ([3]; Botrytis cinerea, 120 h): 100%; pest or weed control at 200 ppm ([4]; Puccinia recondita, 96 h): 78%; pest or weed control at 200 ppm ([5]; Blumeria graminis, 168 h): 100%; pest or weed control at 200 ppm ([6]; Zymoseptoria tritici, 504 h): 100%; pest or weed control at 200 ppm ([7]; Alternaria solani, 168 h): 100%"
COc1cc(F)c(-c2c(N(C)C)ncn2Cc2ccc(Cl)cc2)c(F)c1 [compound 265],61%,60%,97%,32%,0%,86%,0%,–
Fc1ccc(F)c(-c2c(Cl)ncn2Cc2ccc(Cl)cc2)c1F [compound 266],99%,97%,100%,98%,99%,94%,100%,–
CN(C)c1ncn(Cc2ccc(Cl)cc2)c1-c1c(F)ccc(F)c1F [compound 267],86%,0%,98%,9%,97%,91%,0%,–
COc1cc(F)c(-c2c(Cl)ncn2Cc2ccc(Cl)cc2)c(F)c1 [compound 268],99%,98%,99%,63%,75%,87%,100%,–
COc1cc(F)c(-c2c(N(C)C)ncn2Cc2ccc(Cl)cc2)c(F)c1 [compound 269],9%,87%,100%,9%,0%,83%,0%,–
COc1ccc(F)c(-c2c(Cl)ncn2Cc2ccc(Cl)cc2)c1F [compound 270],99%,98%,100%,0%,96%,86%,100%,–
COc1ccc(F)c(-c2c(N(C)C)ncn2Cc2ccc(Cl)cc2)c1F [compound 271],83%,0%,99%,0%,0%,82%,9%,–
Clc1ccc(-c2c(Cl)ncn2Cc2cccc(Cl)c2)cc1 [compound 272],55%,0%,64%,17%,0%,91%,0%,–
CN(C)c1ncn(Cc2cccc(Cl)c2)c1-c1ccc(Cl)cc1 [compound 273],41%,0%,63%,46%,0%,13%,0%,–
COc1cc(F)c(-c2c(Cl)ncn2Cc2ccc(C)cc2)c(F)c1 [compound 274],99%,51%,100%,48%,77%,94%,100%,–
COc1cc(F)c(-c2c(N(C)C)ncn2Cc2ccc(C)cc2)c(F)c1 [compound 275],74%,0%,100%,9%,0%,85%,82%,–
Cc1ccc(-n2c(Cl)nc(Cl)c2-c2ccc(F)cc2Cl)cc1 [compound 282],99%,0%,99%,65%,100%,93%,99%,–
